Non-standard residues stand in square brackets, D forms with d. Residues, ends and D or L forms follow the SMILES beside them. *: point of attachment. Dolaproine = CO[C@@H]([C@@H]1CCCN1)[C@@H](C)C(=O)O; Dil = CC[C@H](C)[C@H](NC)[C@@H](CC(=O)O)OC; X1 = C[C@@H](N*)[C@@H](O)c1ccccc1; NMeV = CN[C@H](C(=O)O)C(C)C
What was measured:
[1] = tested on: LCLC-103H cells; assay: Calreticulin surface expression in vitro (flow cytometry); format: cell-based, human; conditions: 48 h; for cell surface expression of calreticulin (MFI) compared to untreated cells: ADCs 2 μg/mL, MMAE 10 or 50 nM, paclitaxel 1 μM; for percentage of calreticulin positive cells: compared to untreated or isotype control ADC
Procedure: (§1) LCLC-103H or MDA-MB-231 cells were grown to 70% to 80% confluence in 6-well plates, washed with serum-free medium and incubated with IgG1-AXL-107-vcMMAE (2 μg/mL), free monomethyl auristatin E (MMAE, SAFC, cat.no SG10; 10 or 50 nM), paclitaxel (1 μM), or isotype control ADC (IgG1-b12-vcMMAE; 2 μg/mL) in serum-free medium (RPMI1640, Lonza BE17-603E) for 48 hours (LCLC-103H) or 72 hours (MDA-MB-231). After incubation, supernatant and cells were collected and washed in PBS/0.1% BSA/0.02% azide (FACS buffer). Cells were then incubated with a phycoerythrin (PE)-conjugated mouse anti-human calreticulin antibody (Enzo, Cat no. ADI-SPA-601PE-D, lot. 10021835) for 30 min at 4° C. in the dark. A PE-conjugated mouse isotype control antibody (Enzo, cat no. ADI-SAB-600PE-D, lot. 08071817) was included as a control. After washing with FACS buffer, cells were analyzed with flow cytometry in the presence of DAPI (BD; cat no. 564907, lot. 8012653) or TO-PRO-3 (Thermo Fisher, cat no. T3605, lot. 1976612). Calreticulin expression was determined as PE positive cells and the percentage of calreticulin positive cells over isotype control was obtained on DAPI or TO-PRO-3 negative cells.

[2] = tested on: MDA-MB-231 cells; assay: as above; format: cell-based, human; conditions: 72 h; for cell surface expression of calreticulin (MFI) compared to untreated cells: ADCs 2 μg/mL, MMAE 10 or 50 nM, paclitaxel 1 μM; for percentage of calreticulin positive cells: compared to untreated or isotype control ADC
Procedure: as §1

[3] = tested on: LCLC-103H cells; assay: Extracellular ATP release in vitro (CellTiterGlo); format: cell-based, human; conditions: 48 hr, 100% PBS; ADC 2 μg/mL, paclitaxel 1 μM, MMAE 10 or 50 nM
Procedure: (§2) LCLC-103H or MDA-MB-231 cells were seeded in quadruplicate at 25,000 cells per well for LCLC-103H cells or 125,000 cells per well for MDA-MB-231 cells in 24-well plates and grown 3 hours at 37° C. Subsequently, IgG1-AXL-107-vcMMAE (2 μg/mL), free monomethyl auristatin E (MMAE; 10 or 50 nM), paclitaxel (1 μM), or isotype control ADC (IgG1-b12-vcMMAE; 2 μg/mL) were added per well.
(§3) Plates were incubated for 48 hr at 37° C. and after incubation each well was washed with 200 μL PBS. After the final wash, PBS was replaced with 200 μL fresh 100% PBS or 70% PBS (hypotonic) for the indicated times, harvested and transferred to a 96-well plate, and then spun at 1000 rpm for 2 min at RT. Supernatants were transferred to a new 96-well (optiwhite) plate and ATP was measured using CellTiterGlo Luminescent Cell Viability Assay (Promega, Cat.no G7570) according to manufacturer's instructions. All steps were performed with ice-cold PBS and in the dark.

[4] = tested on: MDA-MB-231 cells; assay: Extracellular ATP release in vitro (CellTiterGlo); format: cell-based, human; conditions: 48 hr
Procedure: as §2, §3

[5] = tested on: LCLC-103H cells; assay: HMGB1 secretion in vitro (ELISA); format: cell-based, human; conditions: 48 hrs; ADC 2 μg/mL, MMAE 10 or 50 nM, paclitaxel 1 μM
Procedure: (§4) MDA-MB-231 or LCLC-103H cells were seeded in quadruplicate at 125,000 cells per well (MDA-MB-231) or 25,000 cells/well (LCLC-103H) in 24-well plates and grown 3-4 hrs at 37° C. Subsequently, IgG1-AXL-107-vcMMAE (2 μg/mL), free monomethyl auristatin E (MMAE; 10 or 50 nM), paclitaxel (1 μM), or isotype control ADC (IgG1-b12-vcMMAE; 2 μg/mL) were added to the wells and plates were incubated for 48 hrs at 37° C. After incubation cells were pelleted at 1000 rpm for 3 min at RT and supernatants were transferred to a new 96-wells plate. HMGB1 was measured in the supernatant using a HMGB1-specific ELISA kit (IBL, Cat.no ST51011) according to manufacturer's instructions.

[6] = tested on: MDA-MB-231 cells; assay: HMGB1 secretion in vitro (ELISA); format: cell-based, human; conditions: 48 hrs; ADC 2 μg/mL, MMAE 10 or 50 nM, paclitaxel 1 μM
Procedure: as §4

[7] = tested on: BLM human melanoma cell line-derived xenograft; assay: BLM melanoma xenograft model with MART-1-specific human T cells; format: in vivo, mice; conditions: ADC single dose 4 mg/kg i.v. with control or MART-1 T cells; anti-PD1 5 mg/kg weekly i.p. with MART-1 T cells and control ADC
Procedure: (§5) The anti-tumor activity of IgG1-AXL-107-vcMMAE in combination with anti-PD1 (pembrolizumab) was evaluated in the BLM human melanoma cell line-derived xenograft model in mice, which systemically received human T-cells that were engineered to express a melanoma-specific T-cell receptor (TCR) against MART-1. Before inoculation of mice with BLM cells, the BLM cells were transduced with the antigen (MART-1) as well as the correct HLA haplotype (HLA-A2) in order for the MART-1-specific T cells to recognize the tumor cells.
Melanoma cell line BLM was cultured in DMEM (Gibco), with fetal bovine serum (Sigma), 100 U/mL penicillin (Gibco) and 0.1 mg/mL streptomycin (Gibco) under standard conditions, and was regularly confirmed to be mycoplasma-free by PCR. […]
(§6) 8-14 week old male and female NOD-SCID Gamma (NSGTM) mice (bred in-house at the Netherlands Cancer Institute (NKI), Amsterdam, The Netherlands) were subcutaneously injected in the right flank with 1×10^6 BLM tumor cells. Tumors were measured three times per week with a caliper, and when tumors were 100 mm3 (after 7 days) the animals were randomized over the following treatment groups: • 1. […]
(§7) Tumor volumes were measured 3 times per week by an independent animal technician in a blinded fashion. Tumor volume was calculated as follows: […]. […]

[8] = tested on: LCLC-103H NSCLC cell line-derived xenograft; assay: LCLC-103H NSCLC xenograft model with MART-1-specific human T cells; format: in vivo, mice; conditions: ADC 1 mg/kg weekly i.v. with control T cells; anti-PD1 5 mg/kg weekly i.p. with MART-1 T cells and control ADC
Procedure: as §5, with “LCLC-103H NSCLC” for “BLM human melanoma”, “specific” for “melanoma-specific”, “LCLC-103H” for “BLM”
as §6, with “50” for “100”, “16 days), mice” for “7 days) the animals”, “1. Control T cells+Control ADC (n=7) • 2. MART-1 T cells+Control ADC (n=7) • 3. MART-1 T cells+Control ADC+anti-PD1 (n=7) • 4. Control T cells+IgG1-AXL-107-vcMMAE (n=11) • 5. MART-1 T cells+IgG1-AXL-107-vcMMAE (n=11) • 6. MART-1 T cells+IgG1-AXL-107-vcMMAE+anti-PD1 (n=11)” for “1.”
as §7

[9] = biological target: mouse Axl (Mus musculus, UniProt Q00993); assay: Binding to mouse Axl
[10] = tested on: LXFA 526; conditions: 4 mg/kg i.v.; Boshuizen et al, Nature Med 2018; cited from earlier work
[11] = tested on: LXFA 677; conditions: 4 mg/kg i.v.; Boshuizen et al, Nature Med 2018; cited from earlier work
[12] = hypotonic conditions (70% PBS), ADCs 2 μg/mL, MMAE 50 nM, paclitaxel 1 μM

Chain of mouse Axl (Q00993 19-888): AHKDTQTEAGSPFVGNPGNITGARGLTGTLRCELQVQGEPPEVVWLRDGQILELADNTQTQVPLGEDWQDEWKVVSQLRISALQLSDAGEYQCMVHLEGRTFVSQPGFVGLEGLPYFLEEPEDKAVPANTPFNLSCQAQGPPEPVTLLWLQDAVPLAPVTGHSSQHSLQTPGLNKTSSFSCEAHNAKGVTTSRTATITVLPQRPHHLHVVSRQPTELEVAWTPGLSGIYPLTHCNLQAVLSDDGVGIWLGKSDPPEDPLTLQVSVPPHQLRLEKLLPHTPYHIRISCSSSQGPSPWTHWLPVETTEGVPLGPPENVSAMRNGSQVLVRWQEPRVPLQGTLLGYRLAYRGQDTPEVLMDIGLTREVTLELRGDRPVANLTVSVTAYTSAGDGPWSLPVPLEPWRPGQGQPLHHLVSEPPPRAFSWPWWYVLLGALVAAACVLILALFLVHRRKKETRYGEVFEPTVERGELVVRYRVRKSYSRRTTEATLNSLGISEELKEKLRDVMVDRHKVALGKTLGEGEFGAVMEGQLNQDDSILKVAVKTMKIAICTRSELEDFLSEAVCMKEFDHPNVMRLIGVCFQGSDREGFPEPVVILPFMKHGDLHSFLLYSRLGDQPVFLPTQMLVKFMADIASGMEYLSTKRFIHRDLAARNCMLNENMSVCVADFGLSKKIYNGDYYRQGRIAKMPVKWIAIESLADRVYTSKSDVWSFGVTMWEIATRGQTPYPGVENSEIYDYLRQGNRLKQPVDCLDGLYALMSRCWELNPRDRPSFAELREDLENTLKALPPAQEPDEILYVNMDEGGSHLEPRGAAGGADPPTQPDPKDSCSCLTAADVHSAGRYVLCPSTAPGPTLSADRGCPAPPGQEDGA

Row | Compound | cell surface expression of calreticulin (MFI) compared to untreated cells [1] | percentage of calreticulin positive cells [1] | cell surface expression of calreticulin (MFI) compared to untreated cells [2] | percentage of calreticulin positive cells [2] | ATP release compared to untreated cells [3] | ATP release compared to untreated cells ([4]; 100% PBS, 10 nM MMAE) | ATP release compared to untreated cells ([4]; hypotonic conditions (70% PBS), 10 nM MMAE) [fold] | ATP release compared to untreated cells [4, 12] | HMGB1 secretion compared to untreated cells [5] | HMGB1 secretion compared to untreated cells [6] | anti-tumor effect (tumor size) [7] | anti-tumor effect (tumor size) [8] | binding to mouse Axl [9] | anti-tumor activity / tumor growth [10] | anti-tumor activity / tumor growth [11]
1 | CC[C@H](C)[C@@H]([C@@H](CC(=O)N1CCC[C@H]1[C@H](OC)[C@@H](C)C(=O)N[C@H](C)[C@@H](O)c1ccccc1)OC)N(C)C(=O)[C@@H](NC(=O)[C@@H](NC)C(C)C)C(C)C [MMAE, monomethyl auristatin E] (H-[NMeV]V[Dil][Dolaproine]-X1) | comparable | increased | comparable | increased | comparable levels | about 10 fold | ~26 | about 10 fold | similar | around 4 fold | – | – | – | – | –
2 | CC(=O)O[C@H]1C(=O)[C@@]2(C)[C@H]([C@H](OC(=O)c3ccccc3)[C@]3(O)C[C@H](OC(=O)[C@H](O)[C@@H](NC(=O)c4ccccc4)c4ccccc4)C(C)=C1C3(C)C)[C@]1(OC(C)=O)CO[C@@H]1C[C@@H]2O [paclitaxel] | comparable | increased | comparable | increased | comparable levels | – | – | ~15 fold | about 11 fold | around 4 fold | – | – | – | – | –
3 | IgG1-AXL-107-vcMMAE: anti-human AXL IgG1-kappa antibody conjugated, on an average of 4 cysteinyl, to MMAE via cleavable mc-val-cit-PABC linker | about 1.4 fold | increased | about 3.5 fold | increased | about 3 fold | – | – | ~7 fold | about 7.5 fold | about 1.6 fold | induced tumor regression | some tumor growth inhibition | does not bind | strong anti-tumor activity | strong anti-tumor activity
4 | anti-PD1: anti-PD1 antibody pembrolizumab (KEYTRUDA, MSD), obtained from SelleckChem | – | – | – | – | – | – | – | – | – | – | no enhanced tumor growth inhibition | no enhanced tumor growth inhibition | – | – | –
